Test results taken from patent US10905120B2, “ABA receptor agonists that modulate transpiration” (The Regents of the University of California, priority 2016, dated 2021).
Values after ≈ are worked out from the molar mass of the structure shown. Like-named read-outs stand apart in the source and are kept apart here.

Tests used:
[1] = tested on: Arabidopsis thaliana seeds; assay: Germination assay; assay type: in vivo; details: Minimal Inhibitory Concentration, 3 d in darkness after 4 d stratification
Experimental: Germination experiments were performed with Arabidopsis thaliana seeds of wildtype Col0, Ler, or mutant backgrounds.
Seeds were sterilized by 30 sec incubation in 70% ethanol solution followed by a 5 min […] (while vigorously shaking) in a bleach-Tween solution. Afterwards, the sterilizing solutions were removed, and five washes were performed with sterile distilled water. To enhance complete removal of the solutions between the different steps, short centrifuge spins were performed. Finally, the now surface-sterilized seeds were re-suspended in an aseptic 0.1% agar solution to simplify distribution over multiwall plates. One drop of the solution contained on average 20-30 seeds.
In the multiwell plates, seeds were plated onto 0.7% agar Murashige amd Skoog (MS) plant growth medium containing one-half MS salts and 0.5% sucrose containing different concentrations of ABA, quinabactin, or the compound of interest. After 4 d of stratification at 4° C., the plates were transferred to a growth chamber in darkness and allowed to germinate for 3 d before germination was evaluated. The results are shown above in Table 1 and FIGS. 3A and 3B.

[2] = tested on: adult Arabidopsis plants; assay: Thermal imaging assay of sprayed adult plants; assay type: in vivo; details: sprayed at 50 uM dose on adult Arabidopsis plants; compared with quinabactin and ABA at the same dose
From the text: Molecules that elicit ABA-like effects in vivo typically close guard cells, which arrests transpirational water loss, resulting in less efficient cooling of the leaf surface and a concomitant increase in leaf surface temperature. Infrared thermography has recently emerged as an attractive, noninvasive technique to evaluate plant leaf surface temperature.
For the adult plants used for thermal imaging, seeds were sterilized as described in Example 3. Afterwards, the seeds were spread onto 0.7% agar MS plant growth medium containing one-half MS salts and 0.5% sucrose. After 4 d of stratification at 4° C., these plates were transferred to a growth chamber in light and allowed to germinate and grow for 7 d. The seedlings then were transferred into soil, and plants of 3-4 wk old were used for thermal imaging. Before thermal imaging, topical spraying of the plants was performed with a water solution containing an active agent (50 μM ABA, quinabactin, or a test compound of interest), 0.5% DMSO, and 0.02% polyalkyleneoxide modified heptamethyltrisiloxane surfactant (Silwet-77). Thermal images were collected just before spraying, 24 h after treatment, and 48 h after treatment. Treated plants were compared to mock-treated plants that had been sprayed with water containing 0.5% DMSO and 0.02% Silwet-77.
Thermal images were collected at 16 h after treatment. Thermal images were quantified using the Flir tools software version 5.2.15161.1001 by measuring the average leaf temperature of 5-6 leaves per plant. Average temperatures were calculated for 10 replicate plants (in 5 pots) per treatment. Statistical comparisons between the treated and the mock-treated plants were performed using pairwise t-tests. In the graphs represented in FIG. 1B, error bars represent the standard error of mean, asterisks symbols indicate statistical significance, and * indicates p≤0.05, ** for p≤0.01, *** for p≤0.001.

[3] = target: T1, PYL2 (Arabidopsis thaliana, UniProt O80992); assay: PP2C inhibition assay, recombinant PYL2 receptor; assay type: biochemical
T1 sequence (O80992 1-190): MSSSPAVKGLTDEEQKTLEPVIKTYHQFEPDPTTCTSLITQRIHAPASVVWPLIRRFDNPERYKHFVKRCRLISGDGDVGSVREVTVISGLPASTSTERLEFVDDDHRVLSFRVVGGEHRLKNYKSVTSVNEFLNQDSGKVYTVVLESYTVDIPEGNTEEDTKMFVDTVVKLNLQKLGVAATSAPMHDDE
T1 sequence (Q9CAJ0 23-511 partner): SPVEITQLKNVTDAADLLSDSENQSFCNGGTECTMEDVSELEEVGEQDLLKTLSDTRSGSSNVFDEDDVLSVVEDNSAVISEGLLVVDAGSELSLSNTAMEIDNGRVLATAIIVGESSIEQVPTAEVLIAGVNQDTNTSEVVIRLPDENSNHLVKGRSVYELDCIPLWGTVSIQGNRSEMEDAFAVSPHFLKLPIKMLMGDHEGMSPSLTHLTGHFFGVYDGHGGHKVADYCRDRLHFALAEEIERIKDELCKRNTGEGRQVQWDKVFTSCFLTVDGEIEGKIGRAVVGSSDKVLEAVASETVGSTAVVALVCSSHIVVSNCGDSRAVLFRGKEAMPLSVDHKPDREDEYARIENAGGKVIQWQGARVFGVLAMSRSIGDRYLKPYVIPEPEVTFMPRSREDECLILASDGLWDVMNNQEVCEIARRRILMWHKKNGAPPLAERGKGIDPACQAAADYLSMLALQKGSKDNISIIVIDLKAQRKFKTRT
Experimental: (§1) Reactions were started by adding 40 μL of a reaction solution containing 25 mM 4-nitrophenyl phosphate in assay buffer, after which absorbance measurements were immediately collected using a 405 nm on Wallac plate reader. Reactions contained 100 nM PP2C and 200 nM PYR/PYL proteins. […] The dose response data was fitted to a log (inhibitor) vs response-(variable slope) model using non-linear regression to infer the IC50 values using Graph Pad Prism 6.0.

[4] = target: T2, PYR1 (Arabidopsis thaliana, UniProt O49686); assay: PP2C inhibition assay, recombinant PYR1 receptor; assay type: biochemical
T2 sequence (O49686 1-191): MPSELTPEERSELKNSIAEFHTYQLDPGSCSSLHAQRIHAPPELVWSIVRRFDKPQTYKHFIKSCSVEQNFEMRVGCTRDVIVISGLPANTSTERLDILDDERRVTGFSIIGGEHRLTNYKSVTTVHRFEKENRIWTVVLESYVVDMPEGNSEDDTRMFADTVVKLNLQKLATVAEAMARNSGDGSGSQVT
T2 sequence (Q9CAJ0 23-511 partner): T1 sequence (Q9CAJ0 23-511 partner)
Experimental: as §1

[5] = target: T3, PYL2^V114I mutant (Arabidopsis thaliana, UniProt O80992, V114I); assay: Phosphatase inhibition assay with PYL2 V114I mutant; assay type: biochemical
T3 construct: made in house
T3 sequence (O80992 whole entry V114I, one chain of several): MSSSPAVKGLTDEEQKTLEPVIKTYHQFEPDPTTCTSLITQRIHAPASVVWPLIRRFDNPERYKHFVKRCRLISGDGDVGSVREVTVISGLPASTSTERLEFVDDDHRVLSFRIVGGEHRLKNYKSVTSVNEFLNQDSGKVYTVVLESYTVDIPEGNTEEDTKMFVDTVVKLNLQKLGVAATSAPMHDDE
Experimental: (§2) Without intending to be bound by theory, subtle changes in the binding pockets of PYR1/PYL2 proteins can dictate the orientation of pyrabactin and contribute towards its selectivity towards PYR1 vs PYL2. […] Cyanabactin's activity was tested with the PYR1^I110V and the reciprocal PYL2^V114I mutants to provide possible insights into its selectivity for PYR1 vs PYL2.
(§3) Recombinant PYR1^I110V and PYL2^V114I proteins were prepared using a previously described protocol previously (Peterson Peterson, F. C. et al., “Structural Basis for Selective Activation of ABA Receptors,” Nat. Struct. Mol. Biol. 2010, 17 (99), 1109-1113) and tested in absorbance based phosphatase inhibition assay using p-nitrophenol phosphate as substrate as previously described.

[6] = target: T4, PYR1^I110V mutant (Arabidopsis thaliana, UniProt O49686, I110V); assay: Phosphatase inhibition assay with PYR1 I110V mutant; assay type: biochemical
T4 construct: made in house
T4 sequence (O49686 whole entry I110V, one chain of several): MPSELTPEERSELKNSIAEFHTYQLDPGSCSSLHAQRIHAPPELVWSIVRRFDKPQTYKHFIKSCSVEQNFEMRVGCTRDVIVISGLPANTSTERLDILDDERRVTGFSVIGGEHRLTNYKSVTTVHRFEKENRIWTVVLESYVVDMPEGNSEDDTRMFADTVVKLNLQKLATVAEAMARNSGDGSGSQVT
Experimental: as §2, §3

[7] = target: T3, PYL2^V114I mutant; details: cited from earlier work
[8] = target: T4, PYR1^I110V mutant; details: cited from earlier work
[9] = recombinant receptor 200 nM, PP2C 100 nM, 4-nitrophenyl phosphate substrate, absorbance 405 nm, read-out: IC50 PYL2
[10] = recombinant receptor 200 nM, PP2C 100 nM, 4-nitrophenyl phosphate substrate, absorbance 405 nm, read-out: IC50 PYR1
[11] = recombinant mutant receptor, p-nitrophenol phosphate substrate

SMILES | MIC (μM) Germination [1] [µM] | increase of leaf surface temperature [2] | IC50 [3, 9] [µM] | IC50 [4, 10] [µM] | fold more active in PYL2^V114I mutant as compared to WT PYL2 ([5]; ratio of IC50s) [fold] | IC50 [5, 11] [µM] | fold less active in PYR1^I110V mutant as compared to WT PYR1 ([6]; ratio of IC50s) | IC50 [6, 11] [µM] | responsiveness of PYL2^V114I mutant as compared to WT PYL2 [7] | responsiveness of PYR1^I110V mutant as compared to wild-type PYR1 [8] | IC50 [3] [µM] | IC50 [4] [µM]
CCCc1cc(NS(=O)(=O)Cc2ccc(C)cc2)cc(C)c1C#N [Ligand Q32, N-(4-Cyano-3-methyl-5-propylphenyl)-1-(4-methylphenyl)methanesulfonamide] | 10 (≈ 3.42 µg/mL) | to a lesser extent | 1.61 ± 0.023 | 0.22 ± 0.018 | – | – | – | – | – | – | – | –
Cc1ccc(CS(=O)(=O)Nc2ccc(C#N)c(C3CC3)c2)cc1 [Ligand Q27, N-(4-Cyano-3-cyclopropylphenyl)-1-(4-methylphenyl)methanesulfonamide] | 5 (≈ 1.63 µg/mL) | increase the leaf surface temperature significantly | 3.27 | 0.087 | 3.3 | 0.981 | approximately 9 fold | 0.787 | – | – | – | –
CCOc1cc(NS(=O)(=O)Cc2ccc(C)cc2)ccc1C#N [Ligand Q26, N-(4-Cyano-3-ethoxyphenyl)-1-(4-methylphenyl)methanesulfonamide] | 10 (≈ 3.3 µg/mL) | increase the leaf surface temperature significantly | 7.46 ± 0.469 | 0.112 ± 0.015 | – | – | – | – | – | – | – | –
CCCc1cc(NS(=O)(=O)Cc2ccc(C)cc2)ccc1C#N [Ligand Q31, N-(4-Cyano-3-propylphenyl)-1-(4-methylphenyl)methanesulfonamide] | 10 (≈ 3.28 µg/mL) | to a lesser extent | 2.91 ± 0.27 | 0.1 ± 0.0004 | – | – | – | – | – | – | – | –
O=S(=O)(NCc1ccccn1)c1ccc(Br)c2ccccc12 [pyrabactin] | – | – | – | – | – | – | – | – | gains pyrabactin responsiveness | dramatically loses pyrabactin responsiveness | – | –
CC1=CC(=O)CC(C)(C)[C@@]1(O)/C=C/C(C)=C\C(=O)O [ABA, Abscisic acid, reference compound] | 1 (≈ 0.264 µg/mL) | – | – | – | – | – | – | – | retained responsiveness | retained responsiveness | 0.039 ± 0.0023 | 0.111 ± 0.0038
CCc1cc(NS(=O)(=O)Cc2ccc(C)cc2)cc(C)c1C#N [Ligand Q30, N-(4-Cyano-3-ethyl-5-methylphenyl)-1-(4-methylphenyl)methanesulfonamide] | 10 (≈ 3.28 µg/mL) | increase the leaf surface temperature significantly | 0.969 ± 0.077 | 0.072 ± 0.015 | – | – | – | – | – | – | – | –
CCc1cc(NS(=O)(=O)Cc2ccc(C)cc2)ccc1C#N [Ligand Q29, N-(4-Cyano-3-ethylphenyl)-1-(4-methylphenyl)methanesulfonamide] | 5 (≈ 1.57 µg/mL) | to a lesser extent | 2.69 ± 0.064 | 0.048 ± 0.0003 | – | – | – | – | – | – | – | –
